Laboratory results published in paper PMC4663524 (Toxins, 2015).
“And” between values parts separate entries of the source, which are not always exact repeats. Equal entries are not always repeated.

What was measured:
[1] = Plasma toxicokinetics after a single intravenous bolus (DONiv, DONSiv); assay type: in vivo, pigs; conditions: for Vd(area), apparent volume of distribution: DONS 1 or DONS 2, DONSiv 50 µg/kg BW; for peak concentration in plasma (mean of A + B): after DONSiv 50 µg/kg BW; for stability in plasma: after DONSiv injection
Experimental: (§1) The experiment was designed as a kinetic study. […] Due to the instability of DONS 2 and 3 upon evaporation to dryness, the standards of the three DONS were dissolved in water acidified with 2% formic acid.
(§2) A total of 16 castrated male pigs, crossbred German Landrace × Pietrain, were used for these kinetic experiments. After an adaption phase to the balance cages, eight animals underwent surgery per trial. Animals were equipped with two permanent intravenous catheters in the external vena jugularis for serial blood sampling. After surgery the animals were allowed to recover for one day. On test day, zero blood samples had to be collected from pigs before exposure. Zero blood samples served as reference values to which the data after oral or intravenous bolus related. Serial blood samples (10 mL) were drawn prior to feeding and after 15, 30, 60 and 90 min and then after two, three, four, six, eight, 10, 12, and 24 h for pigs receiving compounds by oral administration. For pigs dosed intravenously, shorter time intervals were chosen at the beginning: five, 10, 15, 20, 30, 45 min and then following the same intervals as for oral exposure. For a clear classification in result Table 1, Table 2, Table 3, Table 4, Table 5 and Table 6, we differentiated between IV- (intravenous bolus) and O- (oral bolus) animals. Due to repeated use of individuals it was numbered continuously.
(§3) Two different injection solutions were prepared for IV administration. […] After weighing, an individual amount was drawn up into syringes with a dose of 50 µg/kg BW. The concentrations of DONS 1, 2, and 3 in DONS standard solution were 3240, 1720, and 7300 µg/mL, respectively. […] Thereafter, the standard was mixed with physiological saline to prepare a 250 µg/mL DONS stock solution. The further handling was similar to DON.
(§4) For quantitative determination of DONS 1, 2, and 3 in plasma, an HPLC-MS/MS analysis was conducted on an Agilent 1200 (Agilent Technologies, Böblingen, Germany) series HPLC system coupled to a 4000 QTrap mass spectrometer (AB Sciex, Foster City, CA, USA). […] The retention times of DONS 1, 2, and 3 were 2.31, 4.71, and 5.88 min, respectively. Tandem mass spectrometric detection was carried out in negative ion mode after electrospray ionization at 600 °C (ion spray voltage: −4500 V). The method was validated in-house for all analytes based on the guidelines of the FDA and European community. Calibration graphs (0.3–480 ng/mL) were prepared and good linearity was achieved (r ≥ 0.99).
The LOD amounted to 0.22 ng/mL and the LOQ was 0.72 ng/mL.
A + B is the initial concentration at t = 0, i.e., C0, α, and β are the rate constant of distribution or elimination phase, respectively, and t the time (h). The non-linear curve fitting module of the Statistica for the Windows^TM operating system (StatSoft Inc., Tulsa, OK, USA) was used to fit the data to Equations (1) and (2).
Further kinetic parameters were derived from the fitted functions as also described by Prelusky et al.. The half-life was calculated as t1/2α=ln (2)/ka or α for absorption or distribution phase and t1/2β=ln(2)/kel or β for the elimination phase, respectively. […] The apparent volume of distribution by area (Vd(area)) following intravenous application was calculated by Vd(area) = D/AUC⋅t1/2β/ln(2) as an indicator of Vd corresponding to the elimination phase and thus covering large parts of the kinetics.
In addition, in order to evaluate the decomposition of the IV administered DONS mixture the DON-AUC was divided by the sum of individually estimated AUCs for DONS 1 and DONS 2 and declared as F. In each case, the AUCs were corrected for the administered dose.

[2] = Clinical symptoms after intravenous or oral bolus; assay type: in vivo, pigs; conditions: for clinical symptoms: pigs, after single bolus
Experimental: as §1, §2

[3] = DONS/DON pattern in standard solution, bolus solution and pig plasma; assay type: physicochemical; conditions: for Proportion in bolus solution: DONS standard mixed with physiological saline for IV bolus (pH 2.66); for Proportion in standard solution: DONS standard solution (pH 1.56); for Proportion in pig plasma: after IV 50 µg DONS mixture/kg BW
Experimental: as §3
Due to known dependency of DONS stability on pH value, we compared the pH of standard and bolus solutions. The determination was carried out with a pH meter (WTW GmbH, Weilheim, Germany). Both an addition of physiological saline and distilled water caused changes in pH value, and so shifts in DONS ratio took place.
as §4

[4] = cited from earlier work
[5] = cited from earlier work; remark: listed apart in the source
[6] = DONS mixture added to uncontaminated diet
[7] = cited from earlier work; for pH range of stability: DONS 2: for 24 h
[8] = DON in plasma after DONSiv 50 µg/kg BW, individual pigs IV6-11
[9] = DON in plasma after DONSiv 50 µg/kg BW, mean, n=6
[10] = DON in plasma, IV 50 µg DON/kg BW, individual pigs IV 1-5, listed as DONiv
[11] = DON in plasma, IV 50 µg DON/kg BW, mean, n=5
[12] = DONS 1 or DONS 2 in plasma (DON equivalents), DONSiv 50 µg/kg BW, individual pigs IV6-11
[13] = DONS 1 or DONS 2 in plasma (DON equivalents), DONSiv 50 µg/kg BW, mean, n=6
[14] = DONS 1 or DONS 2 in plasma (DON equivalents), IV 50 µg DONS mixture/kg BW (DONSiv), individual pigs IV6-11
[15] = DONS 1 or DONS 2 in plasma, DONSiv 50 µg/kg BW, individual pigs IV6-11
[16] = DONS 1 or DONS 2 in plasma, DONSiv 50 µg/kg BW, mean, n=6

With `CC1=C[C@H]2O[C@@H]3[C@H](O)C[C@](C)([C@@]2(CO)[C@H](O)C1=O)[C@]31CO1` [DON, deoxynivalenol] the “mean maximum concentration of DON in plasma (A + B)” value ([1]; DON after DONSiv 50 µg/kg BW) was 17.33 ng/mL, the B [1, 8] was 7.13 ng/mL and 5.49 ng/mL and 5.08 ng/mL and 2.91 ng/mL and 6.48 ng/mL and 3.17 ng/mL and the “F, release rate of DON from DONS” value [1, 8] was 12.5% and 17.3% (2×) and 18.2% and 23.8% and 15.3%. For the same molecule, the “α, rate constant of distribution phase” value [1, 8] was 5.02 h⁻¹ and 3.23 h⁻¹ and 4.83 h⁻¹ and 1.72 h⁻¹ and 3.99 h⁻¹ and 2.25 h⁻¹, the “β, rate constant of elimination phase” value [1, 8] was 0.32 h⁻¹ and 0.22 h⁻¹ and 0.34 h⁻¹ and 0.17 h⁻¹ and 0.29 h⁻¹ and 0.27 h⁻¹ and the A [1, 9] was 12.29 ng/mL. The B [1, 9] was 5.04 ng/mL, the “F, release rate of DON from DONS” value [1, 9] was 17.37% and the “α, rate constant of distribution phase” value [1, 9] was 3.51 h⁻¹. For the same molecule, the “β, rate constant of elimination phase” value [1, 9] was 0.27 h⁻¹, the A ([1]; DON in plasma after IV 50 µg DONS mixture/kg BW (DONSiv), individual pigs IV6-11) was 12.44 ng/mL and 8.40 ng/mL and 17.13 ng/mL and 12.74 ng/mL and 12.50 ng/mL and 10.51 ng/mL and the A ([1]; DON in plasma, IV 50 µg DON/kg BW, two-compartment fit, individual pigs IV 1-5, listed as DONiv) was 136.4 ng/mL and 624.9 ng/mL and 121.9 ng/mL and 56.2 ng/mL and 74.5 ng/mL. For the same molecule, the B [1, 10] was 96.5 ng/mL and 83.6 ng/mL and 73.5 ng/mL and 64.5 ng/mL and 84.1 ng/mL, the “α, rate constant of distribution phase” value [1, 10] was 7.35 h⁻¹ and 18.74 h⁻¹ and 13.71 h⁻¹ and 3.88 h⁻¹ and 6.29 h⁻¹ and the “β, rate constant of elimination phase” value [1, 10] was 0.36 h⁻¹ and 0.33 h⁻¹ and 0.35 h⁻¹ and 0.34 h⁻¹ and 0.38 h⁻¹. The A [1, 11] was 202.8 ng/mL, the B [1, 11] was 80.5 ng/mL and the “α, rate constant of distribution phase” value [1, 11] was 9.99 h⁻¹. For the same molecule, the “β, rate constant of elimination phase” value [1, 11] was 0.35 h⁻¹, the “number of retching and vomiting episodes” value ([2]; IV 50 µg DON/kg BW) was “between three and nine times” and the “time of retching and vomiting after bolus” value ([2]; IV 50 µg DON/kg BW) was 6 to 16 min. The clinical symptoms [2] was “sickness and emesis within minutes”, the clinical symptoms ([2]; listed as DONiv) was “retching and vomiting” and the “Proportion in bolus solution” value [3] was 19.26%. For the same molecule, the “Proportion in standard solution” value [3] was 0%, the “Proportion in pig plasma” value [3] was 10.45% and the “initial concentration A + B of DON at t = 0” value ([4]; IV DON) was 46.2–139.9 ng/mL plasma. The maximum concentration cmax ([4]; oral, DON in wheat) was 15.2 ng/mL, the tmax ([4]; oral, DON in wheat) was 1.65 h and the “total DON bioavailability” value ([4]; single oral dose, DON-contaminated wheat) was 91.5% ± 27.4%. For the same molecule, the “share of orally-administered DON absorbed in the stomach and the first third of the small intestine” value [5] was ~90%.
In the case of `C[C@H]1[C@H](S(=O)(=O)O)[C@H]2O[C@@H]3[C@H](O)C[C@](C)([C@]24COC1(O)[C@H]4O)[C@]31CO1` [DONS 2], the “Vd(area), apparent volume of distribution” value (from here on “Vd(area), apparent volume”) ([1]; individual pigs IV6-11) is reported as 0.68 L/kg and 0.96 L/kg and 0.67 L/kg and 1.08 L/kg and 0.53 L/kg and 0.69 L/kg, the “Vd(area), apparent volume” value ([1]; mean, n=6) is reported as 0.8 L/kg and the “AUC, area under the curve” value [1, 12] is reported as 81.5 ng·h/mL and 74.6 ng·h/mL and 80.1 ng·h/mL and 78.1 ng·h/mL and 105.8 ng·h/mL and 94.6 ng·h/mL. The B [1, 12] was 32.87 ng/mL and 20.05 ng/mL and 29.84 ng/mL and 19.94 ng/mL and 34.75 ng/mL and 25.99 ng/mL, the A [1, 13] was 52.7 ng/mL and the “AUC, area under the curve” value [1, 13] was 85.8 ng·h/mL. For the same molecule, the B [1, 13] was 27.2 ng/mL, the A [1, 14] was 46.01 ng/mL and 23.41 ng/mL and 43.30 ng/mL and 34.43 ng/mL and 126.49 ng/mL and 42.60 ng/mL and the “t1/2β, half-life of elimination” value [1, 15] was 0.77 h (2×) and 0.99 h and 0.74 h and 1.17 h and 0.91 h. The “α, rate constant of distribution phase” value [1, 15] was 12.01 h⁻¹ and 4.93 h⁻¹ and 9.99 h⁻¹ and 4.03 h⁻¹ and 17.39 h⁻¹ and 4.41 h⁻¹, the “β, rate constant of elimination phase” value [1, 15] was 0.90 1/h (2×) and 0.70 1/h and 0.93 1/h and 0.59 1/h and 0.76 1/h and the “α, rate constant of distribution phase” value [1, 16] was 8.8 h⁻¹. The “β, rate constant of elimination phase” value [1, 16] was 0.8 h⁻¹, the “peak concentration in plasma (mean of A + B)” value [1] was 79.9 ng/mL and the stability in plasma [1] was “stable in plasma”. The “Proportion in bolus solution” value [3] was 10.69%, the “Proportion in standard solution” value [3] was 14.03% and the “Proportion in pig plasma” value [3] was 28.25%. For the same molecule, the “detection in plasma after oral DONSpo” value [6] was “rarely, traces of DONS 1 and 2 (<LOQ)”, the “pH range of stability” value [7] was 2–7 and the “pH values at which back-formation or degradation to DON is observed” value [7] was 8–10.
With `CC12CC3(O)[C@@H]4O[C@H]([C@H]1S(=O)(=O)O)[C@](CO)([C@H](O)C2=O)[C@@]3(C)C[C@H]4O` [DONS 1] the “Vd(area), apparent volume” value ([1]; individual pigs IV6-11) was 0.35 L/kg and 0.48 L/kg and 0.51 L/kg and 0.37 L/kg and 0.44 L/kg and 0.42 L/kg, the “Vd(area), apparent volume” value ([1]; mean, n=6) was 0.4 L/kg and the “AUC, area under the curve” value [1, 12] was 179.7 ng·h/mL and 143.2 ng·h/mL and 167.6 ng·h/mL and 187.8 ng·h/mL and 163.4 ng·h/mL and 167.8 ng·h/mL. For the same molecule, the B [1, 12] was 74.30 ng/mL and 55.10 ng/mL and 61.46 ng/mL and 75.58 ng/mL and 67.17 ng/mL and 69.69 ng/mL, the A [1, 13] was 104.2 ng/mL and the “AUC, area under the curve” value [1, 13] was 168.2 ng·h/mL. For the same molecule, the B [1, 13] was 67.2 ng/mL, the A [1, 14] was 86.78 ng/mL and 61.27 ng/mL and 60.09 ng/mL and 257.42 ng/mL and 79.19 ng/mL and 80.20 ng/mL and the “t1/2β, half-life of elimination” value [1, 15] was 0.87 h and 0.96 h (2×) and 1.18 h and 0.99 h and 0.98 h. The “α, rate constant of distribution phase” value [1, 15] was 11.35 h⁻¹ and 13.56 h⁻¹ and 4.94 h⁻¹ and 20.41 h⁻¹ and 4.55 h⁻¹ and 10.96 h⁻¹, the “β, rate constant of elimination phase” value [1, 15] was 0.80 1/h and 0.72 1/h (2×) and 0.59 1/h and 0.70 1/h and 0.71 1/h and the “α, rate constant of distribution phase” value [1, 16] was 11.0 h⁻¹. The “β, rate constant of elimination phase” value [1, 16] was 0.7 h⁻¹, the “peak concentration in plasma (mean of A + B)” value [1] was 171.4 ng/mL and the stability in plasma [1] was “stable in plasma”. For the same molecule, the “Proportion in bolus solution” value [3] was 69.75%, the “Proportion in standard solution” value [3] was 26.43% and the “Proportion in pig plasma” value [3] was 59.49%. For the same molecule, the “detection in plasma after oral DONSpo” value [6] was “rarely, traces of DONS 1 and 2 (<LOQ)” and the “pH range of stability” value [7] was 2–10.
